One data set addresses T1, human OAT1 (Homo sapiens, UniProt Q4U2R8).
T1 sequence (Q4U2R8 1-563): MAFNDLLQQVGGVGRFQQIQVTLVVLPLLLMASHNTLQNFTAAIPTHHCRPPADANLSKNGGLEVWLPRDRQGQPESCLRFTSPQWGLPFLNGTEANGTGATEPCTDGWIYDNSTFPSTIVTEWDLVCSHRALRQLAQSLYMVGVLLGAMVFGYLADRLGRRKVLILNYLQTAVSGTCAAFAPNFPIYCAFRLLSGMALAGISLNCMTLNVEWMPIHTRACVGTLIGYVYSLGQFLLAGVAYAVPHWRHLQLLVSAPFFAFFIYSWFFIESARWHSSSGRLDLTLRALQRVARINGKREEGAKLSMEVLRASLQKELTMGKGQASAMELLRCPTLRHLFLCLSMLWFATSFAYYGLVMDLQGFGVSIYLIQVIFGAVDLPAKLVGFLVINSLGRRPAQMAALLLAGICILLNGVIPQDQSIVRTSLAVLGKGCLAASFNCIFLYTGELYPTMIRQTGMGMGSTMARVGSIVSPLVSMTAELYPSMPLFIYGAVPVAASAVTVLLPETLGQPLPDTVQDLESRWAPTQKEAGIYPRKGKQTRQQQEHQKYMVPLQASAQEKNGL
In words: Cellular transport assay, HEK-293 cells expressing human OAT1. As to conditions: for TransportTC/TransportMC ratio (net transport ratio): 10 min; for K m: human renal basolateral uptake OAT1, 5 min incubation, concentrations in Table 1. The procedure: (§1) Briefly, HEK-293 cells were grown, at 37°C and 5% CO2, in Dulbecco’s modified Eagle’s medium, which was fortified with 10% fetal bovine serum, 1% minimal essential medium nonessential amino acids, and 1% antibiotic-antimycotic solution. A day before transfection, cells were seeded onto 24-well poly-D-lysine-coated plates at a density of 2 × 10^5 cells per well. After incubation at 37°C and 5% CO2 for 24 h, the expression plasmid and the empty vector were introduced separately into the HEK293 cells with Lipofectamine 2000 transfection reagent (Invitrogen, Carlsbad, CA, United States), according to the manufacturer’s protocol to yield transporter-expressing cells and mock cells, respectively.
(§2) Transport studies were performed 48 h after the transfection. […] Differential uptake between the transfected cells and mock cells was defined as net transport ratio (TransportTC/TransportMC ratio), where TransportTC and TransportMC are the transport rates of a test Danshen compound into transfected and mock cells, respectively. […] The determination was performed under linear uptake conditions by incubation for 5 min. Table 1 summarizes the final concentrations of the test Danshen compounds for different transporters. All the incubation samples were analyzed by liquid chromatography/mass spectrometry.
(§3) GraFit software (version 5.0; Erithacus Software Ltd, Surrey, United Kingdom) was used to determine the K m and V max values by nonlinear regression analysis of initial transport rates as a function of substrate concentration.

A further data set has as its target human BSEP (Homo sapiens, UniProt O95342). In words: Vesicular transport assay, inside-out membrane vesicles expressing human BSEP. As to conditions: 10 min. The method, then:
(§4) Inside-out membrane vesicles (5 mg protein/mL), prepared from insect cells expressing human multidrug resistance-associated protein (MRP) 2, MRP3, MRP4, breast cancer resistance protein (BCRP), bile salt export pump (BSEP), and multidrug resistance protein (MDR) one and rat Mrp2, Mrp4, Bcrp, and Bsep, and vesicles (5 mg protein/mL; prepared from the insect cells expressing no ABC transporter; serving as negative control) were obtained from Genomembrane (Kanazawa, Japan).
(§5) The test Danshen compounds at 100 µM final concentration were separately incubated with the membrane vesicles for 10 min. Buffer C (50 mM MOPS-tris, 70 mM KCl, 7.5 mM MgCl2, pH 7.0) was used for preincubation and incubation, while buffer D (40 mM MOPS-tris, 70 mM KCl, pH 7.0) was used for vesicle washing. The transport rate (pmol/mg protein/min) of the test Danshen compound was calculated using Equation (2): Transport=(CV×VV)/T/WV (2) where C V, V V, T, and W V represent concentration of the compound in vesicular lysates supernatant (μM), volume of the lysates (μL), incubation time (10 min), and amount of vesicle protein amount per well (0.05 mg), respectively. Differential transport of the test Danshen compound between ATP-containing vesicles and AMP-containing vesicles was defined as net transport ratio (TransportATP/TransportAMP ratio). […] All the incubation samples were analyzed by liquid chromatography/mass spectrometry.

For the next data set, the target named is T2, human OAT3 (Homo sapiens, UniProt Q8TCC7).
T2 sequence (Q8TCC7 1-542): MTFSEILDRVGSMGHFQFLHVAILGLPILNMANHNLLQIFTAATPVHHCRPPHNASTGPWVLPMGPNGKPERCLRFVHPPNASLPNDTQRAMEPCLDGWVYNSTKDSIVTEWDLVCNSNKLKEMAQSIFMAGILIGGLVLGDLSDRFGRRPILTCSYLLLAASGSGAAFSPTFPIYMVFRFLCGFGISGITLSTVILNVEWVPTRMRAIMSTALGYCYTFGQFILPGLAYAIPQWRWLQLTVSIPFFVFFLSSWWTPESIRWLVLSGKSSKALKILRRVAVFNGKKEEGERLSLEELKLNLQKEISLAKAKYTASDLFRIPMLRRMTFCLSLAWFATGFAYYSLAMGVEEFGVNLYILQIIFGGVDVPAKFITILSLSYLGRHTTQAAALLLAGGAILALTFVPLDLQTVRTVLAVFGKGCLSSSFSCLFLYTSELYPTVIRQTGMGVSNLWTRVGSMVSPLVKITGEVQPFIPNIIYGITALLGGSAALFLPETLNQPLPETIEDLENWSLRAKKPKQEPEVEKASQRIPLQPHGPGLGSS
In words: Cellular transport assay, HEK-293 cells expressing human OAT3. As to conditions: for TransportTC/TransportMC ratio (net transport ratio): 10 min. The method, then: as §1, §2, §3

The next data set addresses human MDR1 (Homo sapiens, UniProt P08183). The experiment in a line: Vesicular transport assay, inside-out membrane vesicles expressing human MDR1. Conditions: 10 min. The procedure:
as §4, §5

The mark [1] stands for this setting: Danshen phenolic acid at 100 μM final concentration, human OAT1-transfected vs mock cells.
The mark [2] stands for this setting: Danshen phenolic acid at 100 μM final concentration, human BSEP vesicles.
Where [3] appears, read: Danshen phenolic acid at 100 μM final concentration, human OAT3-transfected vs mock cells.
Where [4] appears, read: Danshen phenolic acid at 100 μM final concentration, human MDR1 vesicles.

Chain of human BSEP (O95342 whole entry): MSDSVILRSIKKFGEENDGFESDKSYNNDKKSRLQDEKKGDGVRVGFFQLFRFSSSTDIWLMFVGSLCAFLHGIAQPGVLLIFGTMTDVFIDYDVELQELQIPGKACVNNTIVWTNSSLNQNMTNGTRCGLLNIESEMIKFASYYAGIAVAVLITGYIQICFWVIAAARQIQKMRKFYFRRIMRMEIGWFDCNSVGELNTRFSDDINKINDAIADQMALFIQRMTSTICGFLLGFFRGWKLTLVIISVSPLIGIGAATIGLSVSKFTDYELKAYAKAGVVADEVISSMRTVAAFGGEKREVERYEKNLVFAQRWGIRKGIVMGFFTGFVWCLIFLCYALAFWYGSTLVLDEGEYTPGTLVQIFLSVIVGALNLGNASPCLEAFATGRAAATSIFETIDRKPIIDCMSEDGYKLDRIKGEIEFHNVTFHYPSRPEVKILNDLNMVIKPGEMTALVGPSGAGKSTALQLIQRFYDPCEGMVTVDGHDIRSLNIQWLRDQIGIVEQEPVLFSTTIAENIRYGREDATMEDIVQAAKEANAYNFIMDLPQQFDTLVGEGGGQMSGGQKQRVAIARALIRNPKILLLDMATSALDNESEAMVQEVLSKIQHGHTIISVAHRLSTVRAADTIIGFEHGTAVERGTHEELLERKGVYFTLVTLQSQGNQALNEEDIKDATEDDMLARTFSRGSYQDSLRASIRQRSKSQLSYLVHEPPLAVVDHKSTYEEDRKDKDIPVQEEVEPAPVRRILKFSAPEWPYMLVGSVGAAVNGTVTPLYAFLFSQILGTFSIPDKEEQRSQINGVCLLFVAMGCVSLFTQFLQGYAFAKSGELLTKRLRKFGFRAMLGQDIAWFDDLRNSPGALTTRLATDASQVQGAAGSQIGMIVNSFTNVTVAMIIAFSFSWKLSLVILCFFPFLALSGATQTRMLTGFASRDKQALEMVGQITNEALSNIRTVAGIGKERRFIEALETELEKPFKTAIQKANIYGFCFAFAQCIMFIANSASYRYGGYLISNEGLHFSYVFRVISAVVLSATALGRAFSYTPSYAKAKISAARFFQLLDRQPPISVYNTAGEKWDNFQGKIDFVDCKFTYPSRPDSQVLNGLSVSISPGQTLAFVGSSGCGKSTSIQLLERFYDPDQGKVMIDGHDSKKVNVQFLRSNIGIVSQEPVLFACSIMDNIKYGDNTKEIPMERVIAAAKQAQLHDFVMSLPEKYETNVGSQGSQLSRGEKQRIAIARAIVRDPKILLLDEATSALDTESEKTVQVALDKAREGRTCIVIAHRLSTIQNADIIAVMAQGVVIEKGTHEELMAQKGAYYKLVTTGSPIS
Chain of human MDR1 (P08183 whole entry): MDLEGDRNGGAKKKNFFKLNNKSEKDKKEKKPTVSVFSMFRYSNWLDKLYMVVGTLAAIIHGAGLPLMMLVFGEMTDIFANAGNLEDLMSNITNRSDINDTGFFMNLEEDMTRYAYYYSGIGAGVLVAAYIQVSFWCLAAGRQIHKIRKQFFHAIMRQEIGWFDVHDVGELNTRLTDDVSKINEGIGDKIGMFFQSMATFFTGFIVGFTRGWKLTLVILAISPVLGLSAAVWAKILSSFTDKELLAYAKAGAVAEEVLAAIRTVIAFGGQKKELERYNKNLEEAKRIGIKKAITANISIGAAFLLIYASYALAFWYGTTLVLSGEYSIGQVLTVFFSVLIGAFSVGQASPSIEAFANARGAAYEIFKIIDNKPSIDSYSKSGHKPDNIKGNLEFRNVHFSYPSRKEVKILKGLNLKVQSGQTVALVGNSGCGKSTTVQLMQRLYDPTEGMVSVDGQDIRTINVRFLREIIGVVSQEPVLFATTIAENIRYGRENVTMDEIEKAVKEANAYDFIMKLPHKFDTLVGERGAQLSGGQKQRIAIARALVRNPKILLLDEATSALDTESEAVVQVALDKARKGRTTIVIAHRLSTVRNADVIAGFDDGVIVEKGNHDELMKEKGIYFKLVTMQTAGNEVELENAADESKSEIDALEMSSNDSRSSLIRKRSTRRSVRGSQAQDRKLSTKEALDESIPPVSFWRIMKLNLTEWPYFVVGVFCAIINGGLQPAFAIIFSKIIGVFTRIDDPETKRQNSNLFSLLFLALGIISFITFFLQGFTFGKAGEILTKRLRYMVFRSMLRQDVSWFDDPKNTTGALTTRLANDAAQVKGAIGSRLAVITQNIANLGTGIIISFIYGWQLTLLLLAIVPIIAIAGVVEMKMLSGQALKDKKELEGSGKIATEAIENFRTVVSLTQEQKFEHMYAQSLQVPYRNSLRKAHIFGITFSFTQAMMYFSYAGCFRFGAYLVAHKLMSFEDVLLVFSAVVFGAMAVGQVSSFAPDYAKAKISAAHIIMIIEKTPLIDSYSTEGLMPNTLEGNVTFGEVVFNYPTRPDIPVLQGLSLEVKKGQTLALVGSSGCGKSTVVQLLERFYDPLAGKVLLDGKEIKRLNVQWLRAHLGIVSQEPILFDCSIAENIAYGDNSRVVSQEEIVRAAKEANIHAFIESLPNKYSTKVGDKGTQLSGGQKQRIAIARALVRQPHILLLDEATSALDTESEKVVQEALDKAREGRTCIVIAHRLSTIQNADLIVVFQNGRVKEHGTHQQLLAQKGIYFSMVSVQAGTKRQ

With `O=C(/C=C/c1ccc(O)c2c1[C@H](C(=O)O)[C@@H](c1ccc(O)c(O)c1)O2)O[C@H](Cc1ccc(O)c(O)c1)C(=O)O` [Lithospermic acid, lithospermic acid], the “TransportTC/TransportMC ratio (net transport ratio)” value (“TransportTC/TransportMC ratio” below) at human OAT1 (setting [1]) came out at 2.09 ± 0.89; on human OAT3 (setting [3]) it was 0.96 ± 0.15. Besides, the “TransportATP/TransportAMP ratio (net transport ratio)” value (“TransportATP/TransportAMP ratio” below) stood at 0.83 ± 0.20 on human BSEP (setting [2]) and 1.26 ± 0.09 on human MDR1 (setting [4]).

With `O=C(O)c1ccc(O)c(O)c1` [Protocatechuic acid, protocatechuic acid], the “substrate of human OAT1” value on human OAT1 is on record as “substrates”. Besides, the “TransportTC/TransportMC ratio” value turned out to be 53.1 ± 3.9 on human OAT1 (setting [1]) and 1.12 ± 0.25 on human OAT3 (setting [3]). On human OAT1 (human), this compound yielded a microsomal CLint of 6.43 µL/min/mg. Further, the K m on human OAT1 came to 37.6 ± 2.5 µM. Also, the “TransportATP/TransportAMP ratio” value at human BSEP (setting [2]) is listed as 0.99 ± 0.21; at human MDR1 (setting [4]), 0.93 ± 0.04.

On to `O=C(/C=C/c1ccc(O)c(O)c1)O[C@H](Cc1ccc(O)c(O)c1)C(=O)O` [Rosmarinic acid, rosmarinic acid], for which, on human OAT1, the “substrate of human OAT1” value is “substrates”. At human OAT1, this compound showed a K m of 70.8 ± 6.4 µM. The “TransportTC/TransportMC ratio” value is 46.8 ± 10.9 on human OAT1 (human, 100 μM) and 1.56 ± 0.36 on human OAT3 (human, 100 μM). Also, the microsomal CLint at human OAT1 (human, other cell line) was 2.55 µL/min/mg. In addition, the “TransportATP/TransportAMP ratio” value on human BSEP (human, 100 μM, pH 7) was 1.03 ± 0.09; at human MDR1 (human, 100 μM, pH 7), 1.04 ± 0.18.

`O=C(/C=C/c1ccc(O)c(O)c1/C=C/c1ccc(O)c(O)c1)O[C@H](Cc1ccc(O)c(O)c1)C(=O)O` [Salvianolic acid A, salvianolic acid A]: the “TransportTC/TransportMC ratio” value was 1.02 ± 0.14 at human OAT1 (human, 100 μM) and 2.12 ± 0.13 at human OAT3 (human, 100 μM). Besides, the “TransportATP/TransportAMP ratio” value at human BSEP (human, 100 μM, pH 7) came out at 1.32 ± 0.26; on human MDR1 (human, 100 μM, pH 7), 1.26 ± 0.05.

For `O=C(O)Cc1c(/C=C/C(=O)O[C@H](Cc2ccc(O)c(O)c2)C(=O)O)ccc(O)c1O` [Salvianolic acid D, salvianolic acid D], the “substrate of human OAT1” value on human OAT1 is reported as “substrates”. Moreover, the “TransportTC/TransportMC ratio” value amounted to 11.7 ± 2.4 at human OAT1 (setting [1]) and 1.12 ± 0.56 at human OAT3 (setting [3]). The same compound yielded a microsomal CLint at human OAT1 (human) of 2.08 µL/min/mg. Also, the K m on human OAT1 is 18.1 ± 2.3 µM. Further, the “TransportATP/TransportAMP ratio” value at human BSEP (setting [2]) is reported as 1.19 ± 0.35; at human MDR1 (setting [4]), 0.92 ± 0.23.

In the case of `O=C(O)C(O)Cc1ccc(O)c(O)c1` (stereo not shown) [Tanshinol, tanshinol], the K m on human OAT1 was 98.9 ± 7.1 µM; on human OAT3 (human renal basolateral uptake OAT3, 5 min incubation, concentrations in Table 1) it was 1,565 ± 127 μM. Besides, the microsomal CLint at human OAT1 (human, other cell line) was 10.5 µL/min/mg; on human OAT3 (human, other cell line), 0.11 µL/min/mg.

As to salvianolic acid B, the results for the “TransportTC/TransportMC ratio” value at human OAT1 (setting [1]) and on human OAT3 (setting [3]) were 1.21 ± 0.14 and 1.03 ± 0.24, respectively. In addition, the “TransportATP/TransportAMP ratio” value on human BSEP (setting [2]) stood at 1.43 ± 0.32; at human MDR1 (setting [4]), 1.66 ± 0.12.

The values above are taken from paper PMC9127186, “Molecular Basis Underlying Hepatobiliary and Renal Excretion of Phenolic Acids of Salvia miltiorrhiza Roots (Danshen)” (Frontiers in Pharmacology, 2022).
